Experiment [1] relates to Arcanobacterium haemolyticum. The experiment can be described thus: Antibacterial activity against Arcanobacterium haemolyticum. It is filed as functional.
Experiment [2] deals with Corynebacterium glutamicum. The experiment can be described thus: Antibacterial activity against Corynebacterium glutamicum. Type of experiment: functional.
A further experiment relates to Alcaligenes faecalis. The experiment can be described thus: Antibacterial activity against Alcaligenes faecalis. Type of experiment: functional.
Experiment [3] relates to Staphylococcus epidermidis. The experiment can be described thus: Antibacterial activity against Staphylococcus epidermidis assessed as reduction in microbial growth after 24 hrs by CLSI based microdilution method. Type of experiment: functional.
In a further experiment the test system is Moraxella catarrhalis. Briefly: Antibacterial activity against Moraxella catarrhalis assessed as reduction in bacterial growth by broth microdilution method. It is filed as functional. A general note: Broth dilution looks for growth in wells or tubes with falling amounts of substance.
In the next experiment the test system is Corynebacterium xerosis. The experiment can be described thus: Antibacterial activity against Corynebacterium xerosis. It is filed as functional.
A further experiment relates to Staphylococcus xylosus. Briefly: Antibacterial activity against Staphylococcus xylosus assessed as reduction in bacterial growth. Type of experiment: functional.
The test system of experiment [4] is Micrococcus luteus. Briefly: Antibacterial activity against Micrococcus luteus assessed as bacterial growth inhibition by paper disc diffusion assay. It is filed as functional. Background: In agar diffusion tests the substance spreads into inoculated agar from a disc or well.
Experiment [5] has as its system Micrococcus luteus. Briefly: Antibacterial activity against Micrococcus luteus assessed as reduction in microbial growth. It is filed as functional.
Experiment [6] has as its system Staphylococcus epidermidis. Briefly: Antibacterial activity against Staphylococcus epidermidis assessed as reduction in bacterial growth measured after 24 hrs by broth microdilution method. It is filed as functional.
For another experiment, the system named is Micrococcus sp. Briefly: Antibacterial activity against Micrococcus sp. It is filed as functional.
The next experiment has as its system Acinetobacter sp. Briefly: Antibacterial activity against Acinetobacter sp. Type of experiment: functional.
A further experiment relates to Staphylococcus hominis. The experiment can be described thus: Antibacterial activity against Staphylococcus hominis. Type of experiment: functional.
Another experiment relates to Corynebacterium sp. Briefly: Antibacterial activity against Corynebacterium sp. It is filed as functional.
The test system of experiment [7] is Staphylococcus haemolyticus. Briefly: Antibacterial activity against Staphylococcus haemolyticus clinical isolates assessed as bacterial growth inhibition measured after 16 to 24 hrs by broth microdilution assay. Type of experiment: functional. Particulars: time 16-24 hrs.
For experiment [8], the system named is Corynebacterium glutamicum. The experiment can be described thus: Antibacterial activity against Corynebacterium glutamicum ATCC 13032 cultured in MHB medium assessed as no bacterial growth incubated at 20 degC for 24 hrs by microdilution susceptibility test. Type of experiment: functional.
For another experiment, the system named is Staphylococcus cohnii. The experiment can be described thus: Antibacterial activity against Staphylococcus cohnii. Type of experiment: functional.
Experiment [9] has as its system Pseudomonas aeruginosa. Briefly: Antibacterial activity against Pseudomonas aeruginosa assessed as reduction in bacterial growth incubated for 24 hrs by broth microdilution method. It is filed as functional.
Experiment [10] deals with Streptococcus pyogenes. The experiment can be described thus: Antibacterial activity against Streptococcus pyogenes assessed as reduction in microbial growth incubated for 24 hrs by broth micro-dilution method. Type of experiment: functional.
The test system of experiment [11] is Escherichia coli. The experiment can be described thus: Antibacterial activity against Escherichia coli assessed as reduction in bacterial growth incubated for 16 to 20 hrs by Mueller-Hinton broth based two-fold serial dilution method. It is filed as functional. The note with it: time 16-20 hrs.
In another experiment the test system is Klebsiella pneumoniae. The experiment can be described thus: Antibacterial activity against Klebsiella pneumoniae assessed as reduction in bacterial growth incubated for 16 to 20 hrs by Mueller-Hinton broth based two-fold serial dilution method. Particulars: time 16-20 hrs. Type of experiment: functional.
For experiment [12], the system named is Staphylococcus aureus. The experiment can be described thus: Antibacterial activity against Staphylococcus aureus assessed as reduction in bacterial growth incubated for 16 to 20 hrs by Mueller-Hinton broth based two-fold serial dilution method. Type of experiment: functional. The note with it: time 16-20 hrs.
The test system of experiment [13] is Escherichia coli. Briefly: Antibacterial activity against Escherichia coli assessed as bacterial growth inhibition incubated for 18 hrs by CLSI protocol based Mueller-Hinton broth assay. It is filed as functional.
Experiment [14] concerns Pseudomonas aeruginosa. Briefly: Antibacterial activity against Pseudomonas aeruginosa assessed as reduction in bacterial growth by broth microdilution method. It is filed as functional.
Experiment [15] has as its system Streptococcus pyogenes. Briefly: Antibacterial activity against Streptococcus pyogenes assessed as reduction in microbial growth by CLSI based broth microdilution method. It is filed as functional.
For experiment [16], the system named is Staphylococcus aureus. Briefly: Antibacterial activity against Staphylococcus aureus assessed as reduction in microbial growth by CLSI based broth microdilution method. It is filed as functional.
A further experiment deals with Salmonella typhimurium. Briefly: Antibacterial activity against Salmonella typhimurium DT104 assessed as bacterial growth inhibition by measuring zone of inhibition at 50 ug/ml by agar cup diffusion assay. Type of experiment: functional, Salmonella enterica subsp. enterica serovar Typhimurium. The note with it: Salmonella enterica, read-out: IZ.
The subject of experiment [17] is Bacillus subtilis. Briefly: Antibacterial activity against Bacillus subtilis assessed as bacterial growth inhibition by measuring zone of inhibition at 50 ug/ml by agar cup diffusion assay. Particulars: read-out: IZ. Type of experiment: functional.
Experiment [18] relates to Staphylococcus aureus. Briefly: Antibacterial activity against Staphylococcus aureus assessed as bacterial growth inhibition by measuring zone of inhibition at 50 ug/ml by agar cup diffusion assay. It is filed as functional. The note with it: read-out: IZ.
In experiment [19] the test system is Escherichia coli. The experiment can be described thus: Antibacterial activity against Escherichia coli assessed as bacterial growth inhibition by measuring zone of inhibition at 50 ug/ml by agar cup diffusion assay. It is filed as functional. Particulars: read-out: IZ.
The subject of experiment [20] is Staphylococcus aureus. Briefly: Antibacterial activity against Staphylococcus aureus assessed as inhibition of bacterial growth incubated for 4 to 20 hrs by resazurin based microplate reader analysis. It is filed as functional. Particulars: time 4-20 hrs.
Experiment [21] has as its system Escherichia coli. Briefly: Antibacterial activity against Escherichia coli assessed as inhibition of bacterial growth incubated for 4 to 20 hrs by resazurin based microplate reader analysis. Particulars: time 4-20 hrs. It is filed as functional.
For experiment [22], the system named is Bacillus subtilis. The experiment can be described thus: Antibacterial activity against Bacillus subtilis assessed as inhibition of bacterial growth incubated for 4 to 20 hrs by resazurin based microplate reader analysis. It is filed as functional. The note with it: time 4-20 hrs.
The test system of experiment [23] is Pseudomonas aeruginosa. Briefly: Antibacterial activity against Pseudomonas aeruginosa assessed as inhibition of bacterial growth incubated for 4 to 20 hrs by resazurin based microplate reader analysis. Type of experiment: functional. Particulars: time 4-20 hrs. In general terms: Alamar Blue is a resazurin reagent that responds to reducing activity.
Experiment [24] has as its system Escherichia coli. The experiment can be described thus: Antibacterial activity against Escherichia coli assessed as zone of inhibition at 50 microg/ml by cup plate analysis. Type of experiment: functional. The note with it: read-out: IZ.
Experiment [25] concerns Bacillus subtilis. Briefly: Antibacterial activity against Bacillus subtilis assessed as zone of inhibition at 50 microg/ml by cup plate analysis. It is filed as functional. Particulars: read-out: IZ.
A further experiment relates to Proteus vulgaris. Briefly: Antibacterial activity against Proteus vulgaris assessed as zone of inhibition at 50 microg/ml by cup plate analysis. It is filed as functional. Particulars: read-out: IZ.
A further experiment has as its system Bacillus pumilus. Briefly: Antibacterial activity against Bacillus pumilus assessed as zone of inhibition at 50 microg/ml by cup plate analysis. It is filed as functional. The note with it: read-out: IZ.

In brackets after ≈: the same amount, converted by molar mass.

For `Clc1ccc(C(Cc2cccc(Cl)c2)c2c(Cl)nc(N3CCNCC3)nc2Cl)cc1` (stereo unspecified), the MIC in experiment [1] is 10 µg/mL (≈ 20.7 µM); in experiment [2], 50 µg/mL (≈ 104 µM); against Alcaligenes faecalis, over 500 µg/mL; in experiment [3] it was 75 µg/mL; in the experiment with Moraxella catarrhalis, 50 µg/mL (≈ 104 µM); against Corynebacterium xerosis, 30 µg/mL (≈ 62.2 µM). The MIC in the experiment on Staphylococcus xylosus was 100 µg/mL (≈ 207 µM); in the experiment with Micrococcus luteus [4], 75 µg/mL (≈ 156 µM); with Micrococcus luteus [5], 100 µg/mL; in [6], 75 µg/mL (≈ 156 µM); against Micrococcus sp., 75 µg/mL (≈ 156 µM); with Acinetobacter sp., 30 µg/mL (≈ 62.2 µM). Also, the MIC in the experiment with Staphylococcus hominis was 75 µg/mL (≈ 156 µM); in the experiment on Corynebacterium sp. it was 75 µg/mL (≈ 156 µM); in experiment [7], 50 µg/mL (≈ 104 µM); in experiment [8] it was 50 µg/mL (≈ 104 µM); against Staphylococcus cohnii, 75 µg/mL (≈ 156 µM).

Consider `Nc1c(-c2nc3ccccc3s2)c(-c2ccc(Cl)cc2)nc2nc(N/N=C/c3cccc(F)c3)[nH]c(=O)c12`, for which the MIC with Pseudomonas aeruginosa [9] stood at 25 µg/mL (≈ 46.1 µM); in the experiment on Streptococcus pyogenes [10], 12.5 µg/mL; with Escherichia coli [11], 25 µg/mL (≈ 46.1 µM); in the experiment on Klebsiella pneumoniae, 25 µg/mL (≈ 46.1 µM); in the experiment on Staphylococcus aureus [12], 12.5 µg/mL (≈ 23.1 µM).

`O=S(=O)(Nc1ncccn1)c1ccc(Nc2nc(Nc3ccc(Cl)cc3)nc(N3CCCCC3)n2)cc1`: the MIC in the experiment with Escherichia coli [13] turned out to be 25 µg/mL (≈ 46.5 µM); in the experiment with Pseudomonas aeruginosa [14], 100 µg/mL (≈ 186 µM); with Streptococcus pyogenes [15], 100 µg/mL; with Staphylococcus aureus [16], 200 µg/mL.

Turning to `Nc1cccc(/C=N/Nc2nc3nc(-c4ccc(Cl)cc4)c(-c4nc5ccccc5s4)c(N)c3c(=O)[nH]2)c1`, the MIC with Pseudomonas aeruginosa [9] was 25 µg/mL (≈ 46.4 µM); in the experiment with Streptococcus pyogenes [10], 12.5 µg/mL; with Escherichia coli [11] it was 12.5 µg/mL (≈ 23.2 µM); in the experiment on Klebsiella pneumoniae, 12.5 µg/mL (≈ 23.2 µM); with Staphylococcus aureus [12], 25 µg/mL (≈ 46.4 µM).

On to `Cc1ccc(-c2cc(-c3cc(F)c(Cl)cc3Cl)nc(NC(=O)CSc3nnc(-c4cccnc4N4CCOCC4)o3)n2)cc1`, for which the zone of inhibition at 50 µg/mL in the experiment on Salmonella typhimurium was found to be 10 mm; with Bacillus subtilis [17], 8 mm; in the experiment on Staphylococcus aureus [18], 11 mm; with Escherichia coli [19] it was 12 mm.

On to `Cc1nc(NC(=O)c2cc(C(F)(F)F)cc(C(F)(F)F)c2)c2c(C(F)(F)F)cc(-c3ccccc3)nc2n1`, for which the MIC was found to be 12.5 µg/mL (≈ 23 µM) in the experiment on Staphylococcus aureus [20], 50 µg/mL (≈ 91.8 µM) with Escherichia coli [21], 12.5 µg/mL (≈ 23 µM) in the experiment on Bacillus subtilis [22] and 50 µg/mL (≈ 91.8 µM) in the experiment on Pseudomonas aeruginosa [23].

Consider `Nc1nc(-c2ccc(F)cc2)cc(-c2ccsc2)n1`, for which the zone of inhibition at 50 µg/mL was 13 mm in the experiment on Escherichia coli [24], 17 mm in the experiment on Bacillus subtilis [25], 14 mm in the experiment with Proteus vulgaris and 14 mm with Bacillus pumilus.

Regarding `CC1(C)S[C@@H]2[C@H](NC(=O)[C@H](N)c3ccc(O)cc3)C(=O)N2[C@H]1C(=O)O` [AMOXICILLIN], the MIC is 0.39 µg/mL (≈ 1.07 µM) in the experiment with Staphylococcus aureus [20], 0.5 µg/mL (≈ 1.37 µM) with Escherichia coli [21], 0.39 µg/mL (≈ 1.07 µM) in the experiment with Bacillus subtilis [22] and 1 µg/mL (≈ 2.74 µM) in the experiment with Pseudomonas aeruginosa [23].

As to `Clc1ccc(C(Cc2ccccc2)c2c(Cl)nc(Cl)nc2Cl)cc1` (stereo unspecified), the MIC in experiment [1] was found to be 10 µg/mL (≈ 25.1 µM); in experiment [2], 30 µg/mL (≈ 75.4 µM); with Alcaligenes faecalis, 1000 µg/mL (≈ 2510 µM); in [3] it was 100 µg/mL; with Moraxella catarrhalis it was 300 µg/mL (≈ 754 µM); with Corynebacterium xerosis it was 20 µg/mL (≈ 50.2 µM). The MIC with Staphylococcus xylosus is 20 µg/mL (≈ 50.2 µM); in the experiment with Micrococcus luteus [4], 20 µg/mL (≈ 50.2 µM); with Micrococcus luteus [5], 20 µg/mL; in [6], over 100 µg/mL; in the experiment with Micrococcus sp., 30 µg/mL (≈ 75.4 µM); with Acinetobacter sp., over 1000 µg/mL. Besides, the MIC was 100 µg/mL (≈ 251 µM) against Staphylococcus hominis; 100 µg/mL (≈ 251 µM) in the experiment on Corynebacterium sp.; 100 µg/mL (≈ 251 µM) in experiment [7]; 30 µg/mL (≈ 75.4 µM) in experiment [8]; 100 µg/mL (≈ 251 µM) against Staphylococcus cohnii.

Consider `Nc1nc(Cl)c(C(Cc2ccccc2)c2ccc(Cl)cc2)c(Cl)n1` (stereo unspecified), for which the MIC in experiment [1] was 10 µg/mL (≈ 26.4 µM); in experiment [2], 100 µg/mL (≈ 264 µM); against Alcaligenes faecalis, over 500 µg/mL; in experiment [3] it was 100 µg/mL; with Moraxella catarrhalis, 500 µg/mL (≈ 1320 µM); in the experiment with Corynebacterium xerosis, 30 µg/mL (≈ 79.2 µM). The minimum inhibitory concentration (MIC) in the experiment with Staphylococcus xylosus is 100 µg/mL (≈ 264 µM); in the experiment with Micrococcus luteus [4] it was 100 µg/mL (≈ 264 µM); with Micrococcus luteus [5] it was 100 µg/mL; in experiment [6], 100 µg/mL (≈ 264 µM); in the experiment with Micrococcus sp. it was 100 µg/mL (≈ 264 µM); against Acinetobacter sp., over 500 µg/mL. Besides, the MIC (in the experiment on Staphylococcus hominis; against Corynebacterium sp.; in experiment [7]; in [8]; against Staphylococcus cohnii) was 100 µg/mL (≈ 264 µM) in each case.

By MIC is commonly meant the lowest concentration found to suppress growth.

For the origin of these results see ChEMBL document CHEMBL5532639, “Heterocyclic pyrimidine derivatives as promising antibacterial agents” (Eur J Med Chem, 2023).
